# Reference: PubChem BioAssay AID1259407 (Chemical Carcinogenesis Research Information System (CCRIS), 2018)
# The source made the active and inactive calls. How the calls were made is not given here.
# System: CCRIS mutagenicity, Ames/micronucleus/aberration tests
# Assay: CCRIS mutagenicity studies
# [1] = Test System: AMES SALMONELLA TYPHIMURIUM, Strain/Indicator: TA98, Metabolic Activation: NONE, Method: PREINCUBATION
# [2] = Test System: AMES SALMONELLA TYPHIMURIUM, Strain/Indicator: TA100, Metabolic Activation: NONE, Method: PREINCUBATION
# [3] = Test System: AMES SALMONELLA TYPHIMURIUM, Strain/Indicator: TA102, Metabolic Activation: NONE, Method: PREINCUBATION
# [4] = Test System: AMES SALMONELLA TYPHIMURIUM, Strain/Indicator: TA100, Metabolic Activation: NONE, Method: STANDARD PLATE
# [5] = Test System: AMES SALMONELLA TYPHIMURIUM, Strain/Indicator: TA98, Metabolic Activation: NONE, Method: STANDARD PLATE
# [6] = Test System: AMES SALMONELLA TYPHIMURIUM, Strain/Indicator: TA100, Metabolic Activation: RAT, LIVER, S-9, AROCLOR 1254, Method: STANDARD PLATE
smiles,measurement,setting,value
Nc1ccc2c(c1)-c1cccc3cccc-2c13,mutagenic call,"Test System: AMES SALMONELLA TYPHIMURIUM, Strain/Indicator: TA98, Metabolic Activation: RAT, LIVER, S-9, AROCLOR 1254 (2 OR 4%), Method: STANDARD PLATE",active; positive
same,mutagenic call,"Test System: AMES SALMONELLA TYPHIMURIUM, Strain/Indicator: TA100, Metabolic Activation: RAT, LIVER, S-9, AROCLOR 1254 (2%), Method: STANDARD PLATE",active; positive
same,mutagenic call,"Test System: AMES SALMONELLA TYPHIMURIUM, Strain/Indicator: TA1535, Metabolic Activation: RAT, LIVER, S-9, AROCLOR 1254 (2%), Method: STANDARD PLATE",inactive; negative
same,mutagenic call,"Test System: AMES SALMONELLA TYPHIMURIUM, Strain/Indicator: TA1537, Metabolic Activation: RAT, LIVER, S-9, AROCLOR 1254 (2%), Method: STANDARD PLATE",active; positive
CCCCCC,mutagenic call,"Test System: AMES SALMONELLA TYPHIMURIUM, Strain/Indicator: TA97, Metabolic Activation: NONE, Method: PREINCUBATION",inactive; negative
same,mutagenic call,"Test System: AMES SALMONELLA TYPHIMURIUM, Strain/Indicator: TA97, Metabolic Activation: RAT, LIVER, S-9, AROCLOR 1254, Method: PREINCUBATION",inactive; negative
same,mutagenic call,"Test System: AMES SALMONELLA TYPHIMURIUM, Strain/Indicator: TA98, Metabolic Activation: HAMSTER, LIVER, S-9, AROCLOR 1254 (10%), Method: PREINCUBATION",inactive; negative
same,mutagenic call,[1],inactive; negative
same,mutagenic call,"Test System: AMES SALMONELLA TYPHIMURIUM, Strain/Indicator: TA98, Metabolic Activation: RAT, LIVER, S-9, AROCLOR 1254 (10%), Method: PREINCUBATION",inactive; negative
same,mutagenic call,"Test System: AMES SALMONELLA TYPHIMURIUM, Strain/Indicator: TA100, Metabolic Activation: HAMSTER, LIVER, S-9, AROCLOR 1254 (10%), Method: PREINCUBATION",inactive; negative
same,mutagenic call,[2],inactive; negative
same,mutagenic call,"Test System: AMES SALMONELLA TYPHIMURIUM, Strain/Indicator: TA100, Metabolic Activation: RAT, LIVER, S-9, AROCLOR 1254 (10%), Method: PREINCUBATION",inactive; negative
same,mutagenic call,[3],inactive; negative
same,mutagenic call,"Test System: AMES SALMONELLA TYPHIMURIUM, Strain/Indicator: TA102, Metabolic Activation: RAT, LIVER, S-9, AROCLOR 1254, Method: PREINCUBATION",inactive; negative
same,mutagenic call,"Test System: AMES SALMONELLA TYPHIMURIUM, Strain/Indicator: TA1535, Metabolic Activation: HAMSTER, LIVER, S-9, AROCLOR 1254 (10%), Method: PREINCUBATION",inactive; negative
same,mutagenic call,"Test System: AMES SALMONELLA TYPHIMURIUM, Strain/Indicator: TA1535, Metabolic Activation: NONE, Method: PREINCUBATION",inactive; negative
same,mutagenic call,"Test System: AMES SALMONELLA TYPHIMURIUM, Strain/Indicator: TA1535, Metabolic Activation: RAT, LIVER, S-9, AROCLOR 1254 (10%), Method: PREINCUBATION",inactive; negative
same,mutagenic call,"Test System: AMES SALMONELLA TYPHIMURIUM, Strain/Indicator: TA1537, Metabolic Activation: HAMSTER, LIVER, S-9, AROCLOR 1254 (10%), Method: PREINCUBATION",inactive; negative
same,mutagenic call,"Test System: AMES SALMONELLA TYPHIMURIUM, Strain/Indicator: TA1537, Metabolic Activation: NONE, Method: PREINCUBATION",inactive; negative
same,mutagenic call,"Test System: AMES SALMONELLA TYPHIMURIUM, Strain/Indicator: TA1537, Metabolic Activation: RAT, LIVER, S-9, AROCLOR 1254 (10%), Method: PREINCUBATION",inactive; negative
N[C@@H](CS/C(Cl)=C(\Cl)C(Cl)=C(Cl)Cl)C(=O)O,mutagenic call,[2],active; positive
same,mutagenic call,[4],active; positive
same,mutagenic call,"Test System: AMES SALMONELLA TYPHIMURIUM, Strain/Indicator: TA100, Metabolic Activation: RAT, KIDNEY, S-9, AROCLOR 1254, Method: STANDARD PLATE",active; positive
same,mutagenic call,"Test System: AMES SALMONELLA TYPHIMURIUM, Strain/Indicator: TA2638, Metabolic Activation: NONE, Method: PREINCUBATION",active; positive
Cc1ccc2cc3ccc4ccccc4c3nc2c1,mutagenic call,"Test System: AMES SALMONELLA TYPHIMURIUM, Strain/Indicator: TA97A, Metabolic Activation: NONE, Method: PREINCUBATION",inactive; negative
same,mutagenic call,[1],inactive; negative
same,mutagenic call,[2],active; positive
same,mutagenic call,[3],inactive; negative
CP1(C)=NP(C)(C)=NP(C)(C)=N1,mutagenic call,[5],inactive; negative
same,mutagenic call,"Test System: AMES SALMONELLA TYPHIMURIUM, Strain/Indicator: TA98, Metabolic Activation: RAT, LIVER, S-9, AROCLOR 1254, Method: STANDARD PLATE",inactive; negative
same,mutagenic call,[4],inactive; negative
same,mutagenic call,[6],inactive; negative
CNc1ncn(C)c1C(=O)N(C)N=O,mutagenic call,[5],inactive; negative
same,mutagenic call,"Test System: AMES SALMONELLA TYPHIMURIUM, Strain/Indicator: TA98, Metabolic Activation: S-9, Method: STANDARD PLATE",inactive; negative
same,mutagenic call,[4],inactive; negative
same,mutagenic call,"Test System: AMES SALMONELLA TYPHIMURIUM, Strain/Indicator: TA100, Metabolic Activation: S-9, Method: STANDARD PLATE",active; positive
same,mutagenic call,"Test System: AMES SALMONELLA TYPHIMURIUM, Strain/Indicator: TA102, Metabolic Activation: NONE, Method: STANDARD PLATE",active; positive
same,mutagenic call,"Test System: AMES SALMONELLA TYPHIMURIUM, Strain/Indicator: TA102, Metabolic Activation: S-9, Method: STANDARD PLATE",active; positive
same,mutagenic call,"Test System: AMES SALMONELLA TYPHIMURIUM, Strain/Indicator: TA1535, Metabolic Activation: S-9, Method: STANDARD PLATE",active; positive
same,mutagenic call,"Test System: AMES SALMONELLA TYPHIMURIUM, Strain/Indicator: TA1537, Metabolic Activation: NONE, Method: STANDARD PLATE",inactive; negative
same,mutagenic call,"Test System: AMES SALMONELLA TYPHIMURIUM, Strain/Indicator: TA1537, Metabolic Activation: S-9, Method: STANDARD PLATE",inactive; negative
Cc1ccc2nc3c4c(ccc3c(CO)c2c1)[C@H](O)[C@@H](O)C=C4,mutagenic call,[6],active; positive
C=CC1=C(C)C(=O)N/C1=C\c1[nH]c(Cc2[nH]c(/C=C3\NC(=O)C(C)=C3C=C)c(C)c2CCC(=O)NCCS(=O)(=O)O)c(CCC(=O)NCCS(=O)(=O)O)c1C,mutagenic call,"Test System: Ames Salmonella typhimurium, Strain/Indicator: TA98, Metabolic Activation: Liver, S-9, Method: Preincubation",inactive; negative
same,mutagenic call,"Test System: Ames Salmonella typhimurium, Strain/Indicator: TA98, Metabolic Activation: None, Method: Preincubation",inactive; negative
same,mutagenic call,"Test System: Ames Salmonella typhimurium, Strain/Indicator: TA100, Metabolic Activation: Liver, S-9, Method: Preincubation",inactive; negative
same,mutagenic call,"Test System: Ames Salmonella typhimurium, Strain/Indicator: TA100, Metabolic Activation: None, Method: Preincubation",inactive; negative
same,mutagenic call,"Test System: Ames Salmonella typhimurium, Strain/Indicator: TA102, Metabolic Activation: Liver, S-9, Method: Preincubation",inactive; negative
same,mutagenic call,"Test System: Ames Salmonella typhimurium, Strain/Indicator: TA102, Metabolic Activation: None, Method: Preincubation",inactive; negative
